Marks after values point to notes of the source that are not given here.
What was measured:
[1] = tested on: LDL isolated from human plasma; test: TBARS assay, AAPH-induced LDL oxidation; type: biochemical
Protocol: (§1) To remove the inherent antioxidants, purchased LDL was dialyzed using Fisherbrand cellulose dialysis tubing (type T3 membrane, Thermo Fisher Scientific Inc., Ottawa, ON, Canada) against PBS containing 0.138 M NaCl and 0.0027 M KCl (pH 7.4, at 25° C.) at 4° C. for 24 hours. The buffer was changed every six hours. The dialyzed LDL was immediately used or stored at −80° C. in the dark under nitrogen and used within two to three weeks. Protein content of the dialyzed LDL was measured by the Lowry's method (Lowry et al., J. Biol. Chem., 1951, 193: […]) using bovine serum albumin as the standard.
(§2) Two oxidation induction methods were used: copper sulfate and 2,2′-azobis(2-methylpropionamidine)dihydrochloride (AAPH). For both induction systems, 100 μg/mL of final LDL protein concentration was used. LDL was oxidized at the presence of 10 μM final concentration of Cu^2+and 5 mM final concentration of AAPH separately at 37° C. for 4 h in the dark. […] Oxidation was terminated by adding a 1:1 mixture of 1 mM solution of ethylenediaminetetraacetic acid (EDTA) and 1 mM solution of butylated hydroxytoluene (BHT).
(§3) Two main constituents of TAE and oleanolic acid, which is an isomer of ursolic acid, were also used to investigate the concentration-responsiveness. The same concentrations of Cu^2+ and AAPH were used and the oxidation was terminated by a 1:1 mixture of EDTA and BHT as explained earlier under this section.
(§4) TBARS were measured according to the method of Xu et al., J. Food Sci., 2007, 72: S522-S527 with slight modifications. […] The mixture was incubated at 95° C. for 30 min to develop a pink chromogen. After cooling to room temperature tubes were centrifuged at 1500 g for 15 min and the fluorescence was measured using the FLUOstar OPTIMA plate reader (BMG Labtech Inc. Canada). Excitation and emission wavelengths used were 532 and 590 nm, respectively. TBARS activity was expressed as the percent inhibition (Equation 1) of LDL oxidation with comparison to the positive control, where F is fluorescence:
(§5) Percent inhibition (%)=100(Fpositive control−Fsample)/(Fpositive control) (1)

[2] = tested on: LDL isolated from human plasma; test: TBARS assay, Cu2+-induced LDL oxidation; type: biochemical
Protocol: as §1, §2, §3, §4, §5

[3] = 50 mg L^−1, comparison of constituent compounds and metabolites (Table 4)

SMILES | Percent inhibition of secondary LDL oxidation products, AAPH induction [1, 3] | Percent inhibition of secondary LDL oxidation products, Cu induction [2, 3] | Percent inhibition of secondary LDL oxidation products, AAPH induction ([1]; 1 mg L^−1) | Percent inhibition of secondary LDL oxidation products, AAPH induction ([1]; 10 mg L^−1) | Percent inhibition of secondary LDL oxidation products, AAPH induction ([1]; 50 mg L^−1) | Percent inhibition of secondary LDL oxidation products, AAPH induction ([1]; 100 mg L^−1) | Percent inhibition of secondary LDL oxidation products, AAPH induction ([1]; 200 mg L^−1) | Percent inhibition of secondary LDL oxidation products, AAPH induction ([1]; 300 mg L^−1) | Percent inhibition of secondary LDL oxidation products, AAPH induction ([1]; 400 mg L^−1) | Percent inhibition of secondary LDL oxidation products, AAPH induction ([1]; 500 mg L^−1) | Percent inhibition of secondary LDL oxidation products, Cu induction ([2]; 1 mg L^−1) | Percent inhibition of secondary LDL oxidation products, Cu induction ([2]; 10 mg L^−1) | Percent inhibition of secondary LDL oxidation products, Cu induction ([2]; 50 mg L^−1) | Percent inhibition of secondary LDL oxidation products, Cu induction ([2]; 100 mg L^−1) | Percent inhibition of secondary LDL oxidation products, Cu induction ([2]; 200 mg L^−1) | Percent inhibition of secondary LDL oxidation products, Cu induction ([2]; 300 mg L^−1) | Percent inhibition of secondary LDL oxidation products, Cu induction ([2]; 400 mg L^−1) | Percent inhibition of secondary LDL oxidation products, Cu induction ([2]; 500 mg L^−1) | other results
O=C(/C=C/c1ccc(O)c(O)c1)O[C@@H]1C[C@](O)(C(=O)O)C[C@@H](O)[C@H]1O [Chlorogenic acid] | 100.18 ± 3.29^b % | 126.30 ± 1.45^a % | – | – | – | – | – | – | – | – | – | – | – | – | – | – | – | – | –
C[C@H]1[C@H](C)CC[C@]2(C(=O)O)CC[C@]3(C)C(=CC[C@@H]4[C@@]5(C)C[C@@H](O)[C@H](O)C(C)(C)[C@@H]5CC[C@]43C)[C@H]12 [Corosolic acid] | – | – | 6.09 ± 1.83^d % | 5.69 ± 1.46^d % | 32.80 ± 5.49^bc % | 29.84 ± 2.89^c % | 45.49 ± 3.46^ab % | 47.55 ± 1.17^a % | 51.18 ± 1.73^a % | 46.63 ± 3.91^a % | −17.84 ± 5.15^ab % | 3.17 ± 4.20^a % | −6.04 ± 3.62^ab % | −24.94 ± 2.90^be % | −54.17 ± 5.21^d % | −49.93 ± 3.74^d % | −39.57 ± 3.91^cd % | −0.50 ± 5.98^a % | AAPH-induced LDL oxidation inhibition ([1]; greater than 200 mg L^−1): more than 40%; Protection against Cu2+-induced LDL oxidation (statement) [2]: did not show any protection
OC[C@H]1O[C@@H](Oc2cc3c(O)cc(O)cc3[o+]c2-c2ccc(O)c(O)c2)[C@H](O)[C@@H](O)[C@H]1O [Cyanidin-3-O-galactoside] | 70.43 ± 1.23^d % | 104.31 ± 2.25^ab % | – | – | – | – | – | – | – | – | – | – | – | – | – | – | – | – | Cu2+-induced LDL oxidation (statement) ([2]; 50 mg L^−1): promising results
COc1cc(-c2oc3cc(O)cc(O)c3c(=O)c2OC2OC(C(=O)O)C(O)C(O)C2O)ccc1O (stereo not drawn) [Isorhamnetin-3-glucuronic acid] | 51.79 ± 1.27^e % | 20.28 ± 1.49^e % | – | – | – | – | – | – | – | – | – | – | – | – | – | – | – | – | –
CC1(C)CC[C@]2(C(=O)O)CC[C@]3(C)C(=CC[C@@H]4[C@@]5(C)CC[C@H](O)C(C)(C)[C@@H]5CC[C@]43C)[C@@H]2C1 [Oleanolic acid] | – | – | 17.57 ± 8.28^b % | 31.90 ± 0.95^ab % | 37.43 ± 1.98^a % | 30.69 ± 3.22^ab % | 16.75 ± 4.41^b % | 26.13 ± 3.09^ab % | 26.20 ± 4.41^ab % | 29.17 ± 1.58^ab % | 12.06 ± 2.46^a % | −3.01 ± 3.42^ab % | 12.30 ± 2.73^a % | −13.37 ± 5.59^b % | −47.00 ± 3.05^c % | −94.49 ± 4.34^d % | −74.73 ± 5.82^d % | −78.32 ± 4.31^d % | Protection for AAPH-induced LDL oxidation ([1]; 10-100 mg L^−1): around 30%
O=c1c(O[C@@H]2O[C@H](CO)[C@@H](O)[C@H](O)[C@H]2O)c(-c2ccc(O)c(O)c2)oc2cc(O)cc(O)c12 [Quercetin-3-O-glucoside] | 138.25 ± 1.97^a % | 104.13 ± 0.48^ab % | – | – | – | – | – | – | – | – | – | – | – | – | – | – | – | – | –
O=c1c(O)c(-c2ccc(O)c(OS(=O)(=O)O)c2)oc2cc(O)cc(O)c12 [Quercetin-3′-sulfate] | 59.63 ± 1.90^e % | 38.11 ± 1.84^de % | – | – | – | – | – | – | – | – | – | – | – | – | – | – | – | – | –
C[C@H]1[C@H](C)CC[C@]2(C(=O)O)CC[C@]3(C)C(=CC[C@@H]4[C@@]5(C)CC[C@H](O)C(C)(C)[C@@H]5CC[C@]43C)[C@H]12 [Ursolic acid] | – | – | −16.71 ± 1.72^d % | −16.51 ± 2.32^d % | 24.25 ± 2.54^c % | 54.07 ± 2.88^b % | 49.91 ± 3.26^b % | 71.45 ± 5.14^a % | 54.20 ± 2.50^b % | 46.52 ± 2.39^b % | 7.10 ± 1.52^c % | −5.10 ± 0.69^d % | 19.08 ± 2.59^c % | 16.73 ± 1.49^c % | 36.62 ± 5.69^a % | 34.93 ± 5.08^ab % | 42.45 ± 1.02^a % | 39.63 ± 3.85^a % | Concentration giving a greater protection against AAPH-induced LDL oxidation [1]: 300 mg/L; Inhibiting peroxyl-radical-induced LDL oxidation compared to corosolic and oleanolic acids (statement) [1]: more effective; Protection for AAPH-induced LDL oxidation ([1]; beyond 100 mg L^−1): more than 40%; Protection against Cu2+-induced LDL oxidation (statement) [2]: a certain degree of protection
